According to PubChem BioAssay (NCI):
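Briefly, cells in 96-well plates were exposed to five compound concentrations for 48 h, and endpoints were estimated by linear interpolation. The concentration for full growth arrest is given as TGI.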

Key:
Assay in all cases: NCI-60 cell line screen, 48 h
NCI/ADR-RES ovarian = system: NCI/ADR-RES ovarian
SK-MEL-2 melanoma = system: SK-MEL-2 melanoma
SF-295 CNS = system: SF-295 CNS
IGROV1 ovarian = system: IGROV1 ovarian
MCF7 breast = system: MCF7 breast
COLO 205 colon = system: COLO 205 colon
RPMI-8226 leukemia = system: RPMI-8226 leukemia
HT29 colon = system: HT29 colon
OVCAR-4 ovarian = system: OVCAR-4 ovarian
RXF 393 renal = system: RXF 393 renal
PC-3 prostate = system: PC-3 prostate
HCT-116 colon = system: HCT-116 colon
M14 melanoma = system: M14 melanoma
MDA-MB-231 breast = system: MDA-MB-231 breast
SN12C renal = system: SN12C renal
TK-10 renal = system: TK-10 renal
HOP-92 NSCLC = system: HOP-92 NSCLC
KM12 colon = system: KM12 colon
SK-MEL-5 melanoma = system: SK-MEL-5 melanoma
SK-MEL-28 melanoma = system: SK-MEL-28 melanoma
HOP-62 NSCLC = system: HOP-62 NSCLC
U251 CNS = system: U251 CNS
OVCAR-8 ovarian = system: OVCAR-8 ovarian
NCI-H226 lung = system: NCI-H226 lung
HL-60(TB) leukemia = system: HL-60(TB) leukemia
OVCAR-3 ovarian = system: OVCAR-3 ovarian
786-0 renal = system: 786-0 renal
UACC-257 melanoma = system: UACC-257 melanoma
SR leukemia = system: SR leukemia
SF-268 CNS = system: SF-268 CNS
BT-549 breast = system: BT-549 breast
A498 renal = system: A498 renal
NCI-H460 lung = system: NCI-H460 lung
EKVX NSCLC = system: EKVX NSCLC
LOX IMVI melanoma = system: LOX IMVI melanoma
MDA-MB-435 = system: MDA-MB-435
SF-539 CNS = system: SF-539 CNS
CCRF-CEM leukemia = system: CCRF-CEM leukemia
K-562 leukemia = system: K-562 leukemia
SK-OV-3 ovarian = system: SK-OV-3 ovarian
HS 578T breast = system: HS 578T breast
A549 NSCLC = system: A549 NSCLC
MOLT-4 leukemia = system: MOLT-4 leukemia
HCC-2998 colon = system: HCC-2998 colon
MDA-N = system: MDA-N
UACC-62 melanoma = system: UACC-62 melanoma
HCT-15 colon = system: HCT-15 colon
UO-31 renal = system: UO-31 renal
MALME-3M melanoma = system: MALME-3M melanoma
OVCAR-5 ovarian = system: OVCAR-5 ovarian
ACHN renal = system: ACHN renal
DU-145 prostate = system: DU-145 prostate
T-47D breast = system: T-47D breast
SNB-19 CNS = system: SNB-19 CNS
CAKI-1 renal = system: CAKI-1 renal
NCI-H23 lung = system: NCI-H23 lung
SNB-75 CNS = system: SNB-75 CNS
SW-620 colon = system: SW-620 colon
NCI-H522 lung = system: NCI-H522 lung

## O=C(ON=C1c2ccccc2C(Br)C(Br)c2ccccc21)c1ccccc1 (stereo not given)
NCI/ADR-RES ovarian
  TGI: 51.4 µM
SK-MEL-2 melanoma
  TGI: > 63.6 µM
SF-295 CNS
  TGI: 36.4 µM
IGROV1 ovarian
  TGI: 6.27 µM
MCF7 breast
  TGI: 31.5 µM
COLO 205 colon
  TGI: 36.7 µM
RPMI-8226 leukemia
  TGI: 14.7 µM
HT29 colon
  TGI: 38 µM
OVCAR-4 ovarian
  TGI: 30 µM
RXF 393 renal
  TGI: 28.4 µM
PC-3 prostate
  TGI: 40.2 µM
HCT-116 colon
  TGI: 28 µM
M14 melanoma
  TGI: 32.6 µM
MDA-MB-231 breast
  TGI: 33.5 µM
SN12C renal
  TGI: 42.9 µM
TK-10 renal
  TGI: 31.5 µM
HOP-92 NSCLC
  TGI: 5.27 µM
KM12 colon
  TGI: 33.5 µM
SK-MEL-5 melanoma
  TGI: 31.7 µM
SK-MEL-28 melanoma
  TGI: 33.2 µM
HOP-62 NSCLC
  TGI: 17.3 µM
U251 CNS
  TGI: 31.6 µM
OVCAR-8 ovarian
  TGI: 30.8 µM
NCI-H226 lung
  TGI: 34.1 µM
HL-60(TB) leukemia
  TGI: 1.22 µM
OVCAR-3 ovarian
  TGI: 28.7 µM
786-0 renal
  TGI: 23 µM
UACC-257 melanoma
  TGI: 41.7 µM
SR leukemia
  TGI: 9.12 µM
SF-268 CNS
  TGI: 42.3 µM
BT-549 breast
  TGI: 35.7 µM
A498 renal
  TGI: 40.9 µM
NCI-H460 lung
  TGI: 18.8 µM
EKVX NSCLC
  TGI: 46.6 µM
LOX IMVI melanoma
  TGI: 9.12 µM
MDA-MB-435
  TGI: 34.9 µM
SF-539 CNS
  TGI: 13.9 µM
CCRF-CEM leukemia
  TGI: 2.05 µM
K-562 leukemia
  TGI: 8.98 µM
SK-OV-3 ovarian
  TGI: 38.9 µM
HS 578T breast
  TGI: 53.6 µM
A549 NSCLC
  TGI: 44 µM
MOLT-4 leukemia
  TGI: 4.61 µM
HCC-2998 colon
  TGI: 38.1 µM
MDA-N
  TGI: 34.5 µM
UACC-62 melanoma
  TGI: 32.7 µM
HCT-15 colon
  TGI: 42.5 µM
UO-31 renal
  TGI: 8.32 µM
MALME-3M melanoma
  TGI: 37.1 µM
OVCAR-5 ovarian
  TGI: 35.6 µM
ACHN renal
  TGI: 33 µM
DU-145 prostate
  TGI: 31.8 µM
T-47D breast
  TGI: 29.3 µM
SNB-19 CNS
  TGI: 62.1 µM
CAKI-1 renal
  TGI: 23.7 µM
NCI-H23 lung
  TGI: 37.8 µM
SNB-75 CNS
  TGI: > 65.9 µM
SW-620 colon
  TGI: 28.6 µM
NCI-H522 lung
  TGI: 3.85 µM

## CC1=CC2C3(C)C(C)(C(C)=CP3(=O)c3c(C(C)C)cc(C(C)C)cc3C(C)C)C1P2(=O)c1c(C(C)C)cc(C(C)C)cc1C(C)C (stereo not given)
NCI/ADR-RES ovarian
  TGI: 9.89 µM
SK-MEL-2 melanoma
  TGI: 3.37 µM
SF-295 CNS
  TGI: 6.72 µM
IGROV1 ovarian
  TGI: 6.1 µM
MCF7 breast
  TGI: 6.38 µM
COLO 205 colon
  TGI: 3.3 µM
RPMI-8226 leukemia
  TGI: 3.02 µM
HT29 colon
  TGI: 6.29 µM
OVCAR-4 ovarian
  TGI: 16.1 µM
RXF 393 renal
  TGI: 15.8 µM
PC-3 prostate
  TGI: 10.4 µM
HCT-116 colon
  TGI: 4.02 µM
M14 melanoma
  TGI: 4.21 µM
MDA-MB-231 breast
  TGI: 3.87 µM
SN12C renal
  TGI: 7.9 µM
TK-10 renal
  TGI: 7.34 µM
HOP-92 NSCLC
  TGI: 7.97 µM
KM12 colon
  TGI: 4.05 µM
SK-MEL-5 melanoma
  TGI: 3 µM
SK-MEL-28 melanoma
  TGI: 8.23 µM
HOP-62 NSCLC
  TGI: 10.4 µM
U251 CNS
  TGI: 6.59 µM
OVCAR-8 ovarian
  TGI: 16.6 µM
NCI-H226 lung
  TGI: 6.08 µM
HL-60(TB) leukemia
  TGI: 3.85 µM
OVCAR-3 ovarian
  TGI: 6.43 µM
786-0 renal
  TGI: 5.47 µM
UACC-257 melanoma
  TGI: 3.34 µM
SR leukemia
  TGI: 3.92 µM
SF-268 CNS
  TGI: 12.1 µM
BT-549 breast
  TGI: 4.58 µM
A498 renal
  TGI: 6.26 µM
NCI-H460 lung
  TGI: 3.01 µM
EKVX NSCLC
  TGI: 9.83 µM
LOX IMVI melanoma
  TGI: 3.26 µM
MDA-MB-435
  TGI: 5.33 µM
CCRF-CEM leukemia
  TGI: 7.44 µM
K-562 leukemia
  TGI: 12.8 µM
SK-OV-3 ovarian
  TGI: 10.9 µM
HS 578T breast
  TGI: 6.25 µM
A549 NSCLC
  TGI: 9.08 µM
MOLT-4 leukemia
  TGI: 5.78 µM
HCC-2998 colon
  TGI: 3.47 µM
MDA-N
  TGI: 5.62 µM
UACC-62 melanoma
  TGI: 2.92 µM
HCT-15 colon
  TGI: 5.87 µM
UO-31 renal
  TGI: 4.36 µM
MALME-3M melanoma
  TGI: 5.79 µM
OVCAR-5 ovarian
  TGI: 6.31 µM
ACHN renal
  TGI: 8.96 µM
DU-145 prostate
  TGI: 14.2 µM
T-47D breast
  TGI: 10.9 µM
SNB-19 CNS
  TGI: 15.8 µM
CAKI-1 renal
  TGI: 15.9 µM
NCI-H23 lung
  TGI: 4.09 µM
SNB-75 CNS
  TGI: 12.1 µM
SW-620 colon
  TGI: 13.6 µM
NCI-H522 lung
  TGI: 8.64 µM

## CN(O)C(=O)/C=C/c1ccc(OCc2cccc(Cl)c2)cc1
NCI/ADR-RES ovarian
  TGI: 46.7 µM
SK-MEL-2 melanoma
  TGI: 82.7 µM
SF-295 CNS
  TGI: > 100 µM
IGROV1 ovarian
  TGI: 60.8 µM
MCF7 breast
  TGI: > 100 µM
COLO 205 colon
  TGI: > 100 µM
RPMI-8226 leukemia
  TGI: 96.9 µM
HT29 colon
  TGI: 34.9 µM
OVCAR-4 ovarian
  TGI: 86.6 µM
RXF 393 renal
  TGI: > 100 µM
PC-3 prostate
  TGI: > 100 µM
HCT-116 colon
  TGI: 32.9 µM
M14 melanoma
  TGI: > 100 µM
MDA-MB-231 breast
  TGI: > 100 µM
SN12C renal
  TGI: 55.9 µM
TK-10 renal
  TGI: > 100 µM
HOP-92 NSCLC
  TGI: > 100 µM
KM12 colon
  TGI: 41.3 µM
SK-MEL-5 melanoma
  TGI: 78.2 µM
SK-MEL-28 melanoma
  TGI: > 100 µM
HOP-62 NSCLC
  TGI: > 100 µM
U251 CNS
  TGI: > 100 µM
OVCAR-8 ovarian
  TGI: 32.8 µM
NCI-H226 lung
  TGI: 73.9 µM
HL-60(TB) leukemia
  TGI: 52 µM
OVCAR-3 ovarian
  TGI: > 100 µM
786-0 renal
  TGI: 47.2 µM
UACC-257 melanoma
  TGI: > 100 µM
SR leukemia
  TGI: 38.4 µM
SF-268 CNS
  TGI: > 100 µM
BT-549 breast
  TGI: 85.3 µM
A498 renal
  TGI: 66 µM
NCI-H460 lung
  TGI: 43.3 µM
EKVX NSCLC
  TGI: > 100 µM
LOX IMVI melanoma
  TGI: 30.5 µM
MDA-MB-435
  TGI: > 100 µM
SF-539 CNS
  TGI: > 100 µM
CCRF-CEM leukemia
  TGI: 65.6 µM
K-562 leukemia
  TGI: > 100 µM
SK-OV-3 ovarian
  TGI: > 100 µM
HS 578T breast
  TGI: > 100 µM
A549 NSCLC
  TGI: 63.5 µM
MOLT-4 leukemia
  TGI: 39.6 µM
HCC-2998 colon
  TGI: 72.7 µM
MDA-N
  TGI: > 100 µM
UACC-62 melanoma
  TGI: 31.3 µM
HCT-15 colon
  TGI: 29.1 µM
UO-31 renal
  TGI: 23.5 µM
OVCAR-5 ovarian
  TGI: > 100 µM
ACHN renal
  TGI: 29.9 µM
DU-145 prostate
  TGI: 54.8 µM
T-47D breast
  TGI: 66.5 µM
SNB-19 CNS
  TGI: > 100 µM
CAKI-1 renal
  TGI: 62.6 µM
NCI-H23 lung
  TGI: 49 µM
SNB-75 CNS
  TGI: > 100 µM
SW-620 colon
  TGI: > 100 µM
NCI-H522 lung
  TGI: > 100 µM
